Data from patent US8697692B2, “Pyrrolo [3,2-c] pyridine-4-one 2-indolinone protein kinase inhibitors” (Shanghai Hengrui Pharmaceutical Co., Ltd., priority 2006, dated 2014).

How the values were obtained:
HUVEC cell = test: Cell Proliferation Inhibition VEGF-R2 Assay (SRB method); type: cell-based, homo sapient; settings: Homo sapiens; HUVEC cells, 72 hours exposure, Sulforhodamine B; read-out: IC50 (VEGFR/HUVEC)
Source text: The following in vitro assay may be used to determine the level of activity and effect of different compounds of the present invention on the proliferation inhibition (cell toxic) of endothelium growth factor receptor (VEGFR) high expressing homo […] cancer cell-HUVEC cell. The cellular assay described here measure the compounds of their anti-angiogenesis and proliferation inhibition activity and effect through […] on the cancer cells in vitro. The effect and activity is represented by the IC50 value that kills the cancer cell. […] The homo […] highly express […] are chosen and seeded to 96-well cell culture plate at a suitable concentration (exp 5000 cells/ml medium). The cells then are cultured in carbon dioxide (CO2) incubator till when they confluence to about 85%. Then, the cell culture medium is replaced by fresh one with tested compounds added in it at serial concentrations (general 6 to 7 concentrations). Then the cells are put back to the culture and cultured for continuous 72 hours. 72 hours later, the cell exposed to compounds and control cell are assayed for their proliferation using Sulforhodamine B (SRB) method. […] Dimethyl sulfoxide (Sinophma chemical reagent company, catalog No. T20050806) • b. HUVEC cells (Purchased from Institute of biochemistry and cell biology) • c. […] Acetic Acid (Sinophma chemical reagent company, Catalog No. T20060508) • l. Trichloroacetic Acid (Sinophma chemical reagent company, Catalog No. T20060305) • m. […] Class II A/B3 Biological safety cabinet (ThermoForma Catalog No. HB0053-03) • o. […] Centrifuge (Fisher Scientific Marathon 8 k, Catalog No. 0027-02) • q. Novastar Plate reader (BMG Labtech, Catalog No. 700-0081) • r. […] Growing seeded 96-well plates at 37° C., 5% CO2, till 85% confluence. • 4. Prepare compounds stock solution, using DMSO solve candidate compounds to a concentration of 20 mM. […] Use cell culture medium (in this case, DMEM/F12+10% FBS) to dilute the compounds solution prepared above. Each DMSO serial concentration compound solution is diluted by 20 times with culture medium by adding 5 μl DMSO compound solution to 95 μl culture medium, then mix well by vortex. […] After HUVEC cell has attached to the dish bottom and confluence about 85%, change the culture medium with fresh DMEM/F12 plus 10% FBS. Each well added 180 μl medium, then add 20 μl medium solution of tested compounds prepared at step 5 to each well. For control group cell, add 20 μl culture medium containing 0.5% pure DMSO. […] Each 96-well plate, we can test 3 compounds with a control cell group. • 7. Put the culture plates back to incubator, culture for 72 hours at 37° C., 5% CO2. • 8. 72 hours later, remove cultures from incubator into sterile work area. • 9. Prepare fixative (50% Trichloroacetic Acid-TCA) by adding reagent grade water to the TCA, fix the cells by gently layering 50 μl of cold TCA solution on top of the growth medium. • 10. Incubate plates for 1 hour at 4° C. and then rinse with water several times to remove TCA, serum proteins, etc. Plates are air dried and stored until use. Bland background optical density is measured in wells incubated with growth medium without cells. • 11. Use 10% acetic acid solution to prepare 0.4% Sulforhodamine B solution. Add 50 μl sulforhodamine B solution to each well of 96-well plates. • 12. Allow cells to stain for 30 minutes. • 13. Prepared the wash solution of […] acetic acid. At the end of the staining period, the stain is removed and the cells rinsed quickly with 1% acetic acid. Repeat until unincorporated dye is removed. Keep wash times to a minimum to reduce desorption of protein-bound dye. After being rinsed, the cultures are air dried until no moisture is visible. • 14. The incorporated dye is then solubilized in a volume of Sulforhodamine B assay Solubilization solution (10 mM Tris) equal to the original volume of culture medium. Allow cultures to stand for 5 minutes at room temperature.

A431 cell = test: Cell Proliferation Inhibition EGFR Assay (SRB method); type: cell-based, homo sapient; settings: Homo sapiens, A-431; A431 cells, 72 hours exposure, Sulforhodamine B; read-out: IC50 (A431)
Source text: The following in vitro assay may be used to determine the level of activity and effect of different compounds of the present invention on the proliferation inhibition (cell toxic) of […] growth factor receptor (EGFR) high expressing homo […] cancer cell-A431 cell. The cellular assay described here measure the compounds of their anti-angiogenesis and proliferation inhibition activity and effect through EGFR on the cancer cells in vitro. The effect and activity is represented by the IC50 value that kills the cancer cell. […] The homo […] highly express EGFR are chosen and seeded to 96-well cell culture plate at a suitable concentration (exp 5000 cells/ml medium). The cells then are cultured in carbon dioxide (CO2) incubator till when they confluence to about 85%. Then, the cell culture medium is replaced by fresh one with tested compounds added in it at serial concentrations (general 6 to 7 concentrations). Then the cells are put back to the culture and cultured for continuous 72 hours. 72 hours later, the cell exposed to compounds and control cell are assayed for their proliferation using Sulforhodamine B (SRB) method. Compounds IC50 on tested cells are calculated by the data of inhibition rates of serial concentrations of the tested compounds. • a. Dimethyl sulfoxide (Sinophma chemical reagent company, catalog No. T20050806) • b. A431 cells (Purchased from Institute of biochemistry and cell biology) • c. Falcon 100 mm cell culture plates (Baton Dickison Labware, Baton Dickison and company, • Catalog No. 18677) • d. coming 96-well culture cluster (Corning Incorporated, Catalog No. 3599) • e. Fisher Pipette (Fisher scientific, Catalog No. 03-692-164) • f. DMEM/F12 cell medium (Gibco, Catalog No. 12400-024) • g. Fetal bovine serum, origin from Australia (Gibco, Catalog No. 10099-141) • h. […] Sulforhodamine B (Sigma, Catalog No. 3520-42-1) • k. Acetic Acid (Sinophma chemical reagent company, Catalog No. T20060508) • l. Trichloroacetic Acid (Sinophma chemical reagent company, Catalog No. T20060305) • m. Tris base (Amresco, Catalog No. 0826) • n. Class II A/B3 Biological safety cabinet (ThermoForma Catalog No. HB0053 03) • o. Series II water jacketed CO2 incubator (ThermoForma Model: 3111) • p. Centrifuge (Fisher Scientific Marathon 8 k, Catalog No. 0027-02) • q. Novastar Plate reader (BMG Labtech, Catalog No. 700 0081) • r. Orbital Shaker (Qilinbeier, Catalog No. TS-1) Protocol: […] Growing seeded 96-well plates at 37° C., 5% CO2, till 85% confluence. • 4. Prepare compounds stock solution, using DMSO solve candidate compounds to a concentration of 20 mM. […] Use cell culture medium (in this case, DMEM/F12+10% FBS) to dilute the compounds solution prepared above. Each DMSO serial concentration compound solution is diluted by 20 times with culture medium by adding 5 μl DMSO compound solution to 95 μl culture medium, then mix well by vortex. This promise that the DMSO concentration at that the A431 cell will exposed to will not surpass 0.5%. • 6. […] Each well added 180 μl medium, then add 20 μl medium solution of tested compounds prepared at step 5 to each well. For control group cell, add 20 μl culture medium containing 0.5% pure DMSO. […] Each 96-well plate, we can test 3 compounds with a control cell group. • 7. Put the culture plates back to incubator, culture for 72 hours at 37° C., 5% CO2. • 8. 72 hours later, remove cultures from incubator into sterile work area. • 9. Prepare fixative (50% Trichloroacetic Acid-TCA) by adding reagent grade water to the TCA, fix the cells by gently layering […] of cold TCA solution on top of the growth medium. • 10. Incubate plates for 1 hour at 4° C. and then rinse with water several times to remove TCA, serum proteins, etc. Plates are air dried and stored until use. Bland background optical density is measured in wells incubated with growth medium without cells. • 11. Use 10% acetic acid solution to prepare 0.4% Sulforhodamine B solution. Add 50 μl sulforhodamine B solution to each well of 96-well plates. • 12. […]

Row | SMILES | IC50 (A431 cell) | IC50 (HUVEC cell)
1 | CCN(CC)CCN1CCc2[nH]c(/C=C3\C(=O)Nc4cc(N)c(F)cc43)c(C)c2C1=O [Example 7, 2-(6-Amino-5-fluoro-2-oxo-1,2-dihydro-indol-3-ylidenemethyl)-5-(2-diethylamino-ethyl)-3-methyl-1,5,6,7-tetrahydro-pyrrolo[3,2-c]pyridin-4-one] | 10.5 µM | 1.38 µM
2 | CCN(CC)CCN1CCc2[nH]c(/C=C3\C(=O)Nc4c(NC=O)cc(F)cc43)c(C)c2C1=O [Example 5, N-{3-[5-(2-Diethylamino-ethyl)-3-methyl-4-oxo-4,5,6,7-tetrahydro-1H-pyrrolo[3,2-c]pyridine-2-ylmethylene]-5-fluoro-2-oxo-2,3-dihydro-1H-indol-7-yl}-formamide] | 1.38 µM | 10.5 µM
3 | CCN(CC)CCN1CCc2[nH]c(/C=C3\C(=O)Nc4cc(NC=O)c(F)cc43)c(C)c2C1=O [Example 8, N-{3-[5-(2-Diethylamino-ethyl)-3-methyl-4-oxo-4,5,6,7-tetrahydro-1H-pyrrolo[3,2-c]pyridine-2-ylmethylene]-5-fluoro-2-oxo-2,3-dihydro-1,1-indol-6-yl}-formamide] | 0.37 µM | 3.14 µM

More lines, main results first:

Row | IC50 (A431 cell) | SMILES | IC50 (HUVEC cell)
4 | 9.29 µM | CCN(CC)CCN1CCc2[nH]c(/C=C3\C(=O)Nc4cc(NC(C)=O)c(F)cc43)c(C)c2C1=O [Example 9, N-{3-[5-(2-Diethylamino-ethyl)-3-methyl-4-oxo-4,5,6,7-tetrahydro-pyrrolo[3,2-c]pyridine-2-ylmethylene]-5-fluoro-2-oxo-2,3-dihydro-1H-indol-6-yl}-acetamide] | 5.8 µM
5 | 10.7 µM | Cc1c(/C=C2\C(=O)Nc3cc(N)c(F)cc32)[nH]c2c1C(=O)N(CCN1CCCC1)CC2 [Example 14, 2-(6-Amino-5-fluoro-2-oxo-1,2-dihydro-indol-3-ylidenemethyl)-3-methyl-5-(2-pyrrolidin-1-yl-ethyl)-1,5,6,7-tetrahydro-pyrrolo[3,2-c]pyridin-4-one] | 1.05 µM
6 | 3.89 µM | CCN(CC)CCN1CCc2[nH]c(/C=C3\C(=O)Nc4ccc(-c5ccc(OC)cc5)cc43)c(C)c2C1=O [Example 38, 5-(2-Diethylamino-ethyl)-2-[5-(4-methoxy-phenyl)-2-oxo-1,2-dihydro-indol-3-ylidenemethyl)-3-methyl-1,5,6,7-tetrahydro-pyrrolo[3,2-c]pyridin-4-one] | 1.28 µM
